Data reported in article PMC6063448, “Antimicrobial activity of linear lipopeptides derived from BP100 towards plant pathogens” (PLoS ONE, 2018).

Assays:
tobacco leaves = experiment: Effect of peptide infiltration on tobacco leaves; format: in vivo; conditions: for Diameter of necrotic area in infiltrated tobacco leaves: 100 μL infiltrated, after 48 h
Description: BP100 and the 36 lipopeptides were evaluated for their effect upon infiltration on tobacco leaves as described previously. Peptide solutions of 50, 150 and 250 μM were infiltrated (100 μL) into the mesophylls of fully expanded tobacco leaves. Infiltrations were carried out in a single leaf, and for each peptide and dose, at least three leaves randomly distributed in different plants were inoculated. Control infiltrations with water (negative control) or melittin (positive control) at the same molar concentration were performed. The appearance of symptoms on the leaves was followed for 48 h after infiltration and measured as a lesion diameter.

[1] = test system: Xanthomonas arboricola pv. pruni CFBP5563; experiment: MIC, growth inhibition in microtiter plates (TSB); format: cell-based; conditions: Xap, 25°C, 48 h, OD 600 nm, lowest concentration with no growth, given as interval of tested concentrations, three replicates, experiment repeated twice
How it was run: (§1)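 Bacteria were scraped from agar after 24 h at 25°C, or 48 h for X. fragariae, and suspended in sterile water at 10^8 CFU mL^-1. Each suspension was combined with peptide dilution in Trypticase Soy Broth and incubated 48 h at 25°C. Growth was followed by absorbance at 600 nm.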

[2] = test system: Erwinia amylovora PMV6076; experiment: MIC, growth inhibition in microtiter plates (TSB); format: cell-based; conditions: Ea, 25°C, 48 h, OD 600 nm, lowest concentration with no growth, given as interval of tested concentrations, three replicates, experiment repeated twice
How it was run: (§2)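 OD600 readout, hourly over 48 h at 25°C, 20 s shaking; TSB medium; inoculum from 10^8 CFU mL^-1 water suspension; triplicates, experiment run twice; MIC = lowest concentration showing no growth at endpoint.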

[3] = test system: Xanthomonas fragariae Xf349-9A; experiment: MIC, growth inhibition in microtiter plates (TSB); format: cell-based; conditions: Xf, 25°C, 48 h, OD 600 nm, lowest concentration with no growth, given as interval of tested concentrations, three replicates, experiment repeated twice
How it was run: as §1

[4] = test system: Pseudomonas syringae pv. syringae EPS94; experiment: MIC, growth inhibition in microtiter plates (TSB); format: cell-based; conditions: Pss, 25°C, 48 h, OD 600 nm, lowest concentration with no growth, given as interval of tested concentrations, three replicates, experiment repeated twice
How it was run: as §1

[5] = test system: Xanthomonas axonopodis pv. vesicatoria 2133–2; experiment: MIC, growth inhibition in microtiter plates (TSB); format: cell-based; conditions: Xav, 25°C, 48 h, OD 600 nm, lowest concentration with no growth, given as interval of tested concentrations, three replicates, experiment repeated twice
How it was run: as §2

[6] = test system: Pseudomonas syringae pv. actinidiae Psa3700.1.1; experiment: MIC, growth inhibition in microtiter plates (TSB); format: cell-based; conditions: Psa, 25°C, 48 h, OD 600 nm, lowest concentration with no growth, given as interval of tested concentrations, three replicates, experiment repeated twice
How it was run: as §1

proteinase K = test system: T1, proteinase K; experiment: Susceptibility to protease degradation; format: in vitro ADME; conditions: proteinase K (isolated protease) in TRIS buffer; 50 μg/mL peptide, 1 μg/mL proteinase K, 100 mM TRIS buffer pH 7.6, 25°C, 60 min; decrease of HPLC peak area (220 nm); read-out: Digestion with proteinase K (percentage of degraded peptide)
T1 construct: purchased Sigma-Aldrich Corporation, Spain
Description: Digestion of BP100 and of 16 selected lipopeptides was carried out by treating 50 μg/mL peptide with 1 μg/mL proteinase K (Sigma-Aldrich Corporation, Spain) in 100 mM TRIS buffer, pH 7.6, at 25°C. The peptide cleavage after 60 min was determined by HPLC using a Kromasil (4.6 × 40 mm; 3 μm particle size) C18 reverse-phase column. Linear gradients of 0.1% aqueous TFA and 0.1% TFA in CH3CN were run from 0.98:0.02 to 0:1 over 12 min with UV detection at 220 nm. Digestion was estimated as the percentage of degraded lipopeptide calculated from the decrease of the HPLC peak area of the native peptide.

[7] = test system: Fusarium oxysporum f. sp. lycopersici FOL 3 race 2; experiment: MIC, antifungal growth inhibition in microtiter plates (PDB); format: cell-based; conditions: Fo, 22°C, seven days, OD 600 nm, lowest concentration with no growth, given as interval of tested concentrations, three replicates, experiment repeated twice
How it was run: (§3)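 Conidial suspensions (10^3 conidia/mL P. expansum, 10^4 F. oxysporum) incubated with peptides in PDB with 0.003% chloramphenicol at 22 °C for seven days, OD600 read every 2 h. MIC is the lowest concentration with no growth at the end; triplicates, experiment repeated twice.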

[8] = test system: Penicillium expansum EPS26; experiment: as above; format: cell-based; conditions: Pe, 22°C, seven days, OD 600 nm, lowest concentration with no growth, given as interval of tested concentrations, three replicates, experiment repeated twice
How it was run: as §3

Structure (SMILES)	Size of the lesions in infiltrated tobacco leaves (diameter) (tobacco leaves; 250 μM, 100 μL infiltrated into mesophyll, measured after 48 h) [mm]	MIC [1] [µM]	MIC [2] [µM]	MIC [3] [µM]	MIC [4] [µM]	MIC [5] [µM]	MIC [6] [µM]	metabolised at 1 h, 50 μg/mL (proteinase K) [%]	MIC [7] [µM]	MIC [8] [µM]	Diameter of necrotic area in infiltrated tobacco leaves (tobacco leaves; 50 μM) [cm]	Diameter of necrotic area in infiltrated tobacco leaves (tobacco leaves; 250 μM) [cm]
CCCCCC(=O)NCCCC[C@H](NC(=O)[C@H](CCCCN)NC(=O)[C@H](CCCCN)NC(C)=O)C(=O)N[C@@H](Cc1ccccc1)C(=O)N[C@@H](CCCCN)C(=O)N[C@@H](CCCCN)C(=O)N[C@H](C(=O)N[C@@H](CC(C)C)C(=O)N[C@@H](CCCCN)C(=O)N[C@@H](Cc1ccc(O)cc1)C(=O)N[C@@H](CC(C)C)C(N)=O)[C@@H](C)CC [BP370, Ac-KKK(COC5H11)FKKILKYL-NH2]	5.0 ± 1.6	3.1 to 6.2	3.1 to 6.2	6.2 to 12.5	3.1 to 6.2	3.1 to 6.2	3.1 to 6.2	26	0.8 to 1.6	6.2 to 12.5	–	–
CCCCCCCCCCCC(=O)NCCCC[C@H](NC(=O)[C@H](CCCCN)NC(=O)[C@H](CC(C)C)NC(=O)[C@@H](NC(=O)[C@H](CCCCN)NC(=O)[C@H](CCCCN)NC(=O)[C@H](Cc1ccccc1)NC(=O)[C@H](CC(C)C)NC(=O)[C@H](CCCCN)NC(=O)[C@H](CCCCN)NC(C)=O)[C@@H](C)CC)C(=O)N[C@@H](CC(C)C)C(N)=O [BP401, Ac-KKLFKKILKK(COC11H23)L-NH2]	–	1.6 to 3.1	>25	3.1 to 6.2	6.2 to 12.5	0.8 to 1.6	6.2 to 12.5	–	6.2 to 12.5	12.5 to 25	–	–
CCCCCCCCCCCC(=O)NCCCC[C@H](NC(=O)[C@H](Cc1ccc(O)cc1)NC(=O)[C@H](CCCCN)NC(=O)[C@H](CC(C)C)NC(=O)[C@@H](NC(=O)[C@H](CCCCN)NC(=O)[C@H](CCCCN)NC(=O)[C@H](Cc1ccccc1)NC(=O)[C@H](CC(C)C)NC(=O)[C@H](CCCCN)NC(=O)[C@H](CCCCN)NC(C)=O)[C@@H](C)CC)C(N)=O [BP402, Ac-KKLFKKILKYK(COC11H23)-NH2]	–	1.6 to 3.1	3.1 to 6.2	3.1 to 6.2	3.1 to 6.2	1.6 to 3.1	3.1 to 6.2	–	6.2 to 12.5	12.5 to 25	–	–
CC[C@H](C)[C@H](NC(=O)CN)C(=O)NCC(=O)N[C@@H](C)C(=O)N[C@H](C(=O)N[C@@H](CC(C)C)C(=O)N[C@@H](CCCCN)C(=O)N[C@H](C(=O)N[C@@H](CC(C)C)C(=O)N[C@H](C(=O)N[C@H](C(=O)NCC(=O)N[C@@H](CC(C)C)C(=O)N1CCC[C@H]1C(=O)N[C@@H](C)C(=O)N[C@@H](CC(C)C)C(=O)N[C@H](C(=O)N[C@@H](CO)C(=O)N[C@@H](Cc1c[nH]c2ccccc12)C(=O)N[C@H](C(=O)N[C@@H](CCCCN)C(=O)N[C@@H](CCCNC(=N)N)C(=O)N[C@@H](CCCCN)C(=O)N[C@@H](CCCNC(=N)N)C(=O)N[C@@H](CCC(N)=O)C(=O)N[C@@H](CCC(N)=O)C(N)=O)[C@@H](C)CC)[C@@H](C)CC)[C@@H](C)O)[C@@H](C)O)C(C)C)C(C)C [melittin, reference compound]	–	–	–	–	–	–	–	–	–	–	1.1	2.3
